Assay results taken from patent publication US8563543B2, “Iminothiadiazine dioxide compounds as bace inhibitors, compositions, and their use” (Merck Sharp & Dohme Corp., priority 2009, dated 2013).
Several values for one entry are separate records, joined by “and”; a condition that tells them apart may be missing. Equal values may be shown once.

Experiments:
[1] = biological target: soluble human BACE1 catalytic domain (Homo sapiens, UniProt P56817); experiment: BACE1 HTRF FRET assay; format: biochemical; conditions: calculated from IC50 using the Cheng-Prusoff equation
Chain of soluble human BACE1 catalytic domain (P56817 75-416 limits assumed): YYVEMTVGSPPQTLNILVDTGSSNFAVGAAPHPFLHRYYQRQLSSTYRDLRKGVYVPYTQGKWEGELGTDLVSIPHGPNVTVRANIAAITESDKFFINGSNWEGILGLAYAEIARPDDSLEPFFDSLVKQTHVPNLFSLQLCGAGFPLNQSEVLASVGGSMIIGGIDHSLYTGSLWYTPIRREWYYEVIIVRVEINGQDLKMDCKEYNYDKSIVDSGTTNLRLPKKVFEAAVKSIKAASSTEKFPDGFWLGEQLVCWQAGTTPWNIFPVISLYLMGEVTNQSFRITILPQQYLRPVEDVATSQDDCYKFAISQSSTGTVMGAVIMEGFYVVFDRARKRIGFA
Text: Dimethyl Sulfoxide (DMSO)
Recombinant human soluble BACE1 catalytic domain (>95% pure)
APP Swedish mutant peptide substrate (QSY7-APP^swe-Eu): QSY7-[…]-Europium-amide
A homogeneous time-resolved FRET assay was used to determine IC50 values for inhibitors of the soluble human BACE1 catalytic domain. This assay monitored the increase of 620 nm fluorescence that resulted from BACE1 cleavage of an APPswedish APP^swe mutant peptide FRET substrate (QSY7-[…]-Europium-amide). This substrate contained an N-terminal QSY7 moiety that served as a quencher of the C-terminal Europium fluorophore (620 nm Em). In the absence of enzyme activity, 620 nm fluorescence was low in the assay and increased linearly over 3 hours in the presence of uninhibited BACE1 enzyme. Inhibition of BACE1 cleavage of the QSY7-APP^swe-Eu substrate by inhibitors was manifested as a suppression of 620 nm fluorescence.
Varying concentrations of inhibitors at 3× the final desired concentration in a volume of 10 ul were preincubated with purified human BACE1 catalytic domain (3 nM in 10 μl) for 30 minutes at 30° C. in reaction buffer containing 20 mM Na-Acetate pH 5.0, 10% glycerol, 0.1% Brij-35 and 7.5% DSMO. […] The 620 nm fluorescence was then read on a Rubystar HTRF plate reader (BMG Labtechnologies) using a 50 μs delay followed by a 400 millisecond acquisition time window. […]

[2] = Solution stability (hydrolysis) by LC/MS in pH 7.4 phosphate buffer; format: physicochemical; conditions: for hydrolysis: 25° C. over 6 days; for hydrolysis / hydrolysis product share of the sample: pH 7.4
Procedure: The following procedures were used to measure solution stability, and to compare the solution stability of the compounds of the invention to that of otherwise structurally identical iminopyrimidinones.
Stock solutions of the tested compounds were prepared by dissolving about 3 mg of each compound in 3 mL of acetonitrile. Standards for test compounds were prepared by diluting 1 mL of the stock solution with an additional 4 mL of acetonitrile. These standards were stored at 4° C. Samples were prepared by diluting 1 mL of the stock solution with 4 mL of 50 mM pH 7.4 phosphate buffer. These samples were stored at the appropriate temperature in the absence of light. Standards and samples were analyzed by LC/MS initially and at day 1, day 4, and day 6. • HPLC Conditions: • Mobile phase A: 10 mM pH 5 ammonium acetate buffer:methanol (90:10) • Mobile phase B: 10 mM pH 5 ammonium acetate buffer:methanol (10:90) • Column: Zorbax SB-Phenyl 4.6×50 mm, 1.8 μm • Column temperature: 40° C. • Flow: 0.8 mL/min. • Gradient:
• Detectors: UV at 220 nm and 236 nm • MS, ES ionization, positive mode, for identification only at final time point. • The terms reported in the tables below have the following meanings: • Area % is the integration of peak from HPLC as reported by Waters Empower II software. • RRT is the relative retention time of new product compared to the standard of the test compound. • Formula for RRT is:
[formula] • M+1 is the mass observed including protonation (+1 mass unit). • ND stands for no peak detected by the UV detector. • * stands for no ion detected by the mass spectrometer.

[3] = biological target: T1, purified human autoBACE-2 (Homo sapiens, UniProt Q9Y5Z0); experiment: BACE-2 time-resolved endpoint proteolysis assay (BACE-HTRF assay); format: biochemical; conditions: calculated from IC50 using the Cheng-Prusoff equation
T1 sequence (Q9Y5Z0 63-473 limits assumed): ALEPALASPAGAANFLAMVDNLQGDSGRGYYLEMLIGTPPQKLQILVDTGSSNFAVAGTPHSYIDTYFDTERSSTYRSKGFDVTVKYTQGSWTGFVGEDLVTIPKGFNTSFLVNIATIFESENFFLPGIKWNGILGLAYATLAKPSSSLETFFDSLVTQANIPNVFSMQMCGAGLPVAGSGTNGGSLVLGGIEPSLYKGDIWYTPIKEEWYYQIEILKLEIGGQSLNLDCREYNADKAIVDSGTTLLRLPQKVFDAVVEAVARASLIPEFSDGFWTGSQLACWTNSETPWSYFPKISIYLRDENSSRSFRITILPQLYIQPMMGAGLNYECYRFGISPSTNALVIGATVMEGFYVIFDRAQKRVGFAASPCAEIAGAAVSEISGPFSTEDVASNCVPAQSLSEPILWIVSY
Procedure: Inhibitor IC50 values at purified human autoBACE-2 were determined in a time-resolved endpoint proteolysis assay that measures hydrolysis of the QSY7-[…]-Eu-amide FRET peptide substrate (BACE-HTRF assay). RACE-mediated hydrolysis of this peptide results in an increase in relative fluorescence (RFU) at 620 nm after excitation with 320 nm light. Inhibitor compounds, prepared at 3× the desired final concentration in 1×BACE assay buffer (20 mM sodium acetate pH 5.0, 10% glycerol, 0.1% Brij-35) supplemented with 7.5% DMSO were pre-incubated with an equal volume of autoBACE-2 enzyme diluted in 1×RACE assay buffer (final enzyme concentration 1 nM) in black 384-well NUNC plates for 30 minutes at 30° C. […] DMSO was present at 5% final concentration in the assay. Following laser excitation of sample wells at 320 nm, the fluorescence signal at 620 nm was collected for 400 ms following a 50 μs delay on a RUBYstar HTRF plate reader (BMG Labtechnologies). Raw RFU data was normalized to maximum (1.0 nM RACE/DMSO) and minimum (no enzyme/DMSO)RFU values. IC50 values were determined by nonlinear regression analysis (sigmoidal dose response, variable slope) of percent inhibition data with minimum and maximum values set to 0 and 100 percent respectively. Similar IC50 values were obtained when using raw RFU data. The Ki values were calculated from the IC50 using the Cheng-Prusoff equation.

[4] = Sample at pH 7.4, 25° C., Day 1
[5] = Sample at pH 7.4, 25° C., Day 4
[6] = Sample at pH 7.4, 25° C., Day 6
[7] = Sample at pH 7.4, 25° C., Initial
[8] = Sample initial, 40° C. and 60° C. studies
[9] = Standard in acetonitrile, stored at 4° C., Day 1
[10] = Standard in acetonitrile, stored at 4° C., Day 4
[11] = Standard in acetonitrile, stored at 4° C., Day 6
[12] = Standard in acetonitrile, stored at 4° C., Initial

| SMILES | hydrolysis [2] | hydrolysis product share of the sample ([2]; 40° C. over 4 days) | hydrolysis product share of the sample ([2]; 60° C.) | Area %, Day 1 (parent peak) [2, 4] | Area %, Day 4 (parent peak) [2, 5] | Area %, Day 6 (parent peak) [2, 6] | Area %, Initial (parent peak) [2, 7] | Area %, Initial (parent peak) [2, 8] | Area %, Day 1 (parent peak) [2, 9] | Area %, Day 4 (parent peak) [2, 10] | Area %, Day 6 (parent peak) [2, 11] | Area %, Initial (parent peak) [2, 12] | Area %, Day 1 (parent peak) ([2]; pH 7.4 at 40° C., Day 1) | Area %, Day 4 (parent peak) ([2]; pH 7.4 at 40° C., Day 4) | also measured |
| --- | --- | --- | --- | --- | --- | --- | --- | --- | --- | --- | --- | --- | --- | --- | --- |
| CN1C(=N)N[C@](C)(c2ccc(F)cc2F)[C@@H](c2ccc(C(F)(F)F)cc2)S1(=O)=O [Example 3] | no hydrolysis | no hydrolysis | no hydrolysis | 100.0% | 100.0% | 100.0% | 100.0% | 100.0% | 100.0% | 100.0% | 100.0% | 100.0% | 100.0% | 100.0% | Ki [1]: ~9 nM; Area %, Day 4 (parent peak) ([2]; pH 7.4 at 60° C., Day 4): 87.3%; Area %, Day 4 (unidentified peak, RRT 0.52) ([2]; pH 7.4 at 60° C., Day 4, no ion detected by the mass spectrometer): 12.7%; Ki [3]: ~11 nM |
| CN1C(=N)N[C@](C)(c2ccc(F)cc2F)[C@@H](c2ccc(C(F)(F)F)cc2)C1=O [Compound Y] | 3.36% | 31.4% | 28.5% | 100.0% | 100.0% | 89.79% | 100.0% | 98.2% | 100.0% and 99.4% | 100.0% | 100.0% | 100.0% and 98.8% | 86.3% | 55.8% | Area %, Day 6 (hydrolysis product peak) [2, 6]: 3.36%; Area %, Initial (hydrolysis product peak) [2, 8]: 0.7%; Area %, Day 1 (hydrolysis product peak) ([2]; pH 7.4 at 40° C., Day 1): 10.5%; Area %, Day 4 (hydrolysis product peak) ([2]; pH 7.4 at 40° C., Day 4): 31.4%; Area %, Day 4 (unidentified peak, RRT 0.87) ([2]; pH 7.4 at 40° C., Day 4, no ion detected by the mass spectrometer): 5.8%; Area %, Day 1 (hydrolysis product peak) ([2]; pH 7.4 at 60° C., Day 1): 28.5%; Area %, Day 1 (parent peak) ([2]; pH 7.4 at 60° C., Day 1): 56.7%; Area %, Day 1 (unidentified peak, RRT 0.87) ([2]; pH 7.4 at 60° C., Day 1, no ion detected by the mass spectrometer): 6.6% |
